Assay results: patent US11780821B2, “Inhibitors of fibroblast activation protein” (Praxis Biotech LLC, priority 2017, dated 2023)
Where two headings read alike, the source gives them in different places.

Experiments:
Assay type in all cases: biochemical
[1] = molecular target: T1, recombinant human FAPα (rhFAPα) (Homo sapiens, UniProt Q12884); test: FAPα enzymatic exopeptidase (dipeptidase) activity assay; settings: for IC50: exopeptidase, read-out: rhFAPα (exo IC50)
T1 construct: purchased R&S system (so in the source)
T1 sequence (Q12884 1-760): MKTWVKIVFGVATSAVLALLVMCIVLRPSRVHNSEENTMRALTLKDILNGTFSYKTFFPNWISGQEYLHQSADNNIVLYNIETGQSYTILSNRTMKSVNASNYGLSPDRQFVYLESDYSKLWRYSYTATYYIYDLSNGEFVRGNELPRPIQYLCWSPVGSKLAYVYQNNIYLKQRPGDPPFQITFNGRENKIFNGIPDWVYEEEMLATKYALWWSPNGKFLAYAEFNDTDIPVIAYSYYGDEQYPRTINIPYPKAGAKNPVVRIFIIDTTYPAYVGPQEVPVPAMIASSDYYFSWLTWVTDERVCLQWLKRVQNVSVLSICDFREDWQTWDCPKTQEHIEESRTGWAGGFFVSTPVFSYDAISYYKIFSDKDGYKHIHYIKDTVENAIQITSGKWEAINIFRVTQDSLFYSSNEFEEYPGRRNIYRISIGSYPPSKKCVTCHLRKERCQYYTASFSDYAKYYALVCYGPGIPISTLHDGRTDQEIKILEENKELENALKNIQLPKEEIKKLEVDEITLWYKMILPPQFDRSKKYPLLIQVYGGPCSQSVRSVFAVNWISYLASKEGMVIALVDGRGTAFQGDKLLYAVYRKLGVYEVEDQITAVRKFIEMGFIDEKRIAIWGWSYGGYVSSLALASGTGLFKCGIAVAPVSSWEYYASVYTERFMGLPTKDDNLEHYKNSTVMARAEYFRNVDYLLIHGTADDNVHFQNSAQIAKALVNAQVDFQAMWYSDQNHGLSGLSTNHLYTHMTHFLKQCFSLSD

[2] = molecular target: T2, recombinant mouse DPPIV (rmDPPIV) (Mus musculus, UniProt P28843); test: DPPIV enzymatic activity assay; settings: H-Gly-Pro-pNA substrate
T2 construct: purchased R&S system (so in the source)

[3] = molecular target: T3, recombinant mouse PREP (rmPREP) (Mus musculus, UniProt Q9QUR6); test: PREP enzymatic activity assay; settings: Z-Gly-Pro-AMC substrate
T3 construct: purchased R&S system (so in the source)
Protocol: (§1) 7-Amino-4-Methylcoumarin (AMC) release was detected by measuring fluorescence at Ex/Em 380/460 nm using a Multifunction Microplate Reader (Synergy 4, Biotek). All measurements were carried out in triplicate.

[4] = molecular target: T4, recombinant mouse FAPα (rmFAPα) (Mus musculus, UniProt P97321); test: FAPα enzymatic exopeptidase (dipeptidase) activity assay; settings: 1 μM test compound; Z-Gly-Pro-AMC substrate; read-out: rmFAPα (% exo inh @ 1 μM)
T4 construct: purchased R&S system (so in the source)
T4 sequence (P97321 1-761): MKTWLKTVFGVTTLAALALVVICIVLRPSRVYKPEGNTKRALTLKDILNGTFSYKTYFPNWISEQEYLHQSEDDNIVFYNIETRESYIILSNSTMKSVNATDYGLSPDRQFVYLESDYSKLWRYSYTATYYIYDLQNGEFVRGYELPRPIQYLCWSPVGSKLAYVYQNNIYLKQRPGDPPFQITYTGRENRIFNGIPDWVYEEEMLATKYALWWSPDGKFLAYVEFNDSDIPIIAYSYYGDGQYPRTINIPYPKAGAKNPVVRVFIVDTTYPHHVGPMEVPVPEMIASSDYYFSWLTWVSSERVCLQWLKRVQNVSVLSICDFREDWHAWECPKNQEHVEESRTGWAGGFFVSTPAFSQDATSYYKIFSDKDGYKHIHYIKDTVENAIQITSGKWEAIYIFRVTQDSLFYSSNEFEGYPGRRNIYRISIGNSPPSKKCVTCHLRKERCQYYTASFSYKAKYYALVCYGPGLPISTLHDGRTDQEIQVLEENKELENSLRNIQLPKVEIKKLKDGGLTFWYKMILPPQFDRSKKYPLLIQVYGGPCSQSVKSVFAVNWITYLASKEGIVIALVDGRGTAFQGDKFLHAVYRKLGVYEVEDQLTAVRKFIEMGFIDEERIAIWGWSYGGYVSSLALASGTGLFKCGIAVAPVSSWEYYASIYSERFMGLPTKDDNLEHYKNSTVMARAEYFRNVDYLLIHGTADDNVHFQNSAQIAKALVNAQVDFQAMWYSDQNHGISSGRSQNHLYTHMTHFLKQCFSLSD
Protocol: FAPα enzymatic exopeptidase (dipeptidase) activity assay. […] 7-Amino-4-Methylcoumarin (AMC) release was detected by measuring fluorescence at Ex/Em 380/460 nm using a Multifunction Microplate Reader (Synergy 4, Biotek). All measurements were carried out in duplicate. […] For the calculations, the average measurements from reactions containing only vehicle and substrate, without enzyme, were used as a blank and were subtracted from the rest of the measurements. Percent inhibition was calculated using the average measurements from reactions containing vehicle, enzyme, and substrate as the maximum of enzymatic activity. Measurements were performed as a single point.

[5] = molecular target: T5, recombinant human DPPIV (rhDPPIV) (Homo sapiens, UniProt P27487); test: DPPIV enzymatic activity assay; settings: H-Gly-Pro-pNA substrate
T5 construct: purchased R&S system (so in the source)

[6] = molecular target: T6, recombinant human PREP (rhPREP) (Homo sapiens, UniProt P48147); test: PREP enzymatic activity assay; settings: Z-Gly-Pro-AMC substrate
T6 sequence (P48147 1-710): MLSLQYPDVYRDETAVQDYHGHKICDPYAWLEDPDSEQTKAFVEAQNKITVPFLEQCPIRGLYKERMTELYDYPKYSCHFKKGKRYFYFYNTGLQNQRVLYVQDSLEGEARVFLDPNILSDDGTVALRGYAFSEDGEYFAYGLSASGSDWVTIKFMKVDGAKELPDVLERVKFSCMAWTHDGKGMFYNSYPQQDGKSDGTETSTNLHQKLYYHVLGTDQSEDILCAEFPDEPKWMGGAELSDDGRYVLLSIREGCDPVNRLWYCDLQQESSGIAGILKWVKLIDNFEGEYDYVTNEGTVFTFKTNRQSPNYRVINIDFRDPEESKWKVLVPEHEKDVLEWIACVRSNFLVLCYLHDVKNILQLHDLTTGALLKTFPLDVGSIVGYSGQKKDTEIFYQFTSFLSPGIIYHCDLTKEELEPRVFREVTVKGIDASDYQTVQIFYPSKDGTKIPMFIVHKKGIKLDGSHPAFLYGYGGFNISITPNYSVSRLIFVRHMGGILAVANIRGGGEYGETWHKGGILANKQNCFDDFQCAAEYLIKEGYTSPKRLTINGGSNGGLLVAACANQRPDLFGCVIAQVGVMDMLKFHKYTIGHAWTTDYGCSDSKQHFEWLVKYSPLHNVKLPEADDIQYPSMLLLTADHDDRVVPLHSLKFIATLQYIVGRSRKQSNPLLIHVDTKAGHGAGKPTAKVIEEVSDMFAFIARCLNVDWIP
Protocol: as §1

[7] = molecular target: T4, recombinant mouse FAPα (rmFAPα); test: FAPα enzymatic exopeptidase (dipeptidase) activity assay; settings: for IC50: exopeptidase, read-out: rmFAPα (exo IC50)
[8] = molecular target: T7, recombinant human DPP9 (rhDPP9) (Homo sapiens, UniProt Q86TI2); test: DPP9 enzymatic activity assay; settings: H-Gly-Pro-AMC substrate
T7 construct: purchased R&S system (so in the source)
Protocol: as §1

T3 sequence (Q9QUR6 whole entry): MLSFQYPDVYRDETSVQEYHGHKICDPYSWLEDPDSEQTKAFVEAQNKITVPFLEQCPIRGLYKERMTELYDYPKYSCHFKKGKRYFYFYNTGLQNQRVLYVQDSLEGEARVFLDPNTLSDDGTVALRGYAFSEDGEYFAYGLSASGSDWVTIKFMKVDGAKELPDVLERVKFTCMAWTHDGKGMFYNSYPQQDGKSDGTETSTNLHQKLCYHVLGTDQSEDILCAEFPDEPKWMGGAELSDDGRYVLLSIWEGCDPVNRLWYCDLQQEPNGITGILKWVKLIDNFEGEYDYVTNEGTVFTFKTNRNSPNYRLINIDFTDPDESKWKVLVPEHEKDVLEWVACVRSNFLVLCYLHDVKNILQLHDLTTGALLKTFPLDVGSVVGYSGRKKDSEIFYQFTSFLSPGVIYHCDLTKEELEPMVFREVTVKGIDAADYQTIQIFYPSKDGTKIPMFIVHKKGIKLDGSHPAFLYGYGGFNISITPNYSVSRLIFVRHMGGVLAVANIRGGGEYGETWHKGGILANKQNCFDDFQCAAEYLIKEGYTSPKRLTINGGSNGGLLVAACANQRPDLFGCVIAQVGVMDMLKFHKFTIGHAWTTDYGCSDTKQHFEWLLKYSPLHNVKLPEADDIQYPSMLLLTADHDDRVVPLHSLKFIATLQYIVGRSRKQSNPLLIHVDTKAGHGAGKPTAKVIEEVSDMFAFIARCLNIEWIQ
T2 sequence (P28843 whole entry): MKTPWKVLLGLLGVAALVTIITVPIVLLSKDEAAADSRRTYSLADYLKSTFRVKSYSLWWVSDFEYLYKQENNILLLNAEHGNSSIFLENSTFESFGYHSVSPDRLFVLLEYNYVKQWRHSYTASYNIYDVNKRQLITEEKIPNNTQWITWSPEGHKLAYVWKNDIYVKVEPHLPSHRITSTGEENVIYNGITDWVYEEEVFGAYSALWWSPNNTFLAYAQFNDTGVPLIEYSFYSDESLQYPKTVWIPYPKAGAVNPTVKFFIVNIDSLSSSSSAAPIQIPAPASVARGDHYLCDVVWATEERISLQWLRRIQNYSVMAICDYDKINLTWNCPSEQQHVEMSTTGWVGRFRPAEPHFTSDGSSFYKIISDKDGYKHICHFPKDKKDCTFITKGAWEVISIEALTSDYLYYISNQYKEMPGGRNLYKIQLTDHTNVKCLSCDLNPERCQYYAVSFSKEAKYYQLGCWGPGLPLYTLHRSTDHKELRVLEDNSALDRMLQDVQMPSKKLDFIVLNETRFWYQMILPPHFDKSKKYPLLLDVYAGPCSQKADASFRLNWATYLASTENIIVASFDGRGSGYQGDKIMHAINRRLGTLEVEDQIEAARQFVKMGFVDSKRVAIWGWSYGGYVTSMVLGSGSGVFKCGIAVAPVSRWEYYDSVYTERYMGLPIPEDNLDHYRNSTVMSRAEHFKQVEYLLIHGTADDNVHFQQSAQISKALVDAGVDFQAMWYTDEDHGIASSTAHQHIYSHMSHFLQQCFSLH
T5 sequence (P27487 whole entry): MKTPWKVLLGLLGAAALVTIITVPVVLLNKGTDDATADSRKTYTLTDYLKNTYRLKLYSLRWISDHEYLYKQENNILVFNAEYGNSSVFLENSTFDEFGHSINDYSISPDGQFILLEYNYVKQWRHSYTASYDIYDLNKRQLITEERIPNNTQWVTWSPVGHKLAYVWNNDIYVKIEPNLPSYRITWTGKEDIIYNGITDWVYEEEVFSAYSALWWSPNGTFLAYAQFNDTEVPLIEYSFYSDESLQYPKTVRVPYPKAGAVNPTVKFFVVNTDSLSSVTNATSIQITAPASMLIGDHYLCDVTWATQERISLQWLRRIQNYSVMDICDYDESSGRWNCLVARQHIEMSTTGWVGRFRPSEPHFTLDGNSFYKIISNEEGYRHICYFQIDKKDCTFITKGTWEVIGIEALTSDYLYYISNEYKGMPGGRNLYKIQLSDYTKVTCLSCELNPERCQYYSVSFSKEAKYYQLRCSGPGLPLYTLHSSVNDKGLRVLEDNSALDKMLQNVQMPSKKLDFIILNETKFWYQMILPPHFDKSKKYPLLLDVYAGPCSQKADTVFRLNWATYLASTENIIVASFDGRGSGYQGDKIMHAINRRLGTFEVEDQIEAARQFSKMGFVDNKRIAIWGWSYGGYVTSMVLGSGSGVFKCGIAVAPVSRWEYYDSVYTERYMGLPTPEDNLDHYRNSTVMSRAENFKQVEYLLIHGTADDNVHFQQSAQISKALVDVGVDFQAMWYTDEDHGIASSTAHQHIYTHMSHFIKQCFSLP
T7 sequence (Q86TI2 whole entry): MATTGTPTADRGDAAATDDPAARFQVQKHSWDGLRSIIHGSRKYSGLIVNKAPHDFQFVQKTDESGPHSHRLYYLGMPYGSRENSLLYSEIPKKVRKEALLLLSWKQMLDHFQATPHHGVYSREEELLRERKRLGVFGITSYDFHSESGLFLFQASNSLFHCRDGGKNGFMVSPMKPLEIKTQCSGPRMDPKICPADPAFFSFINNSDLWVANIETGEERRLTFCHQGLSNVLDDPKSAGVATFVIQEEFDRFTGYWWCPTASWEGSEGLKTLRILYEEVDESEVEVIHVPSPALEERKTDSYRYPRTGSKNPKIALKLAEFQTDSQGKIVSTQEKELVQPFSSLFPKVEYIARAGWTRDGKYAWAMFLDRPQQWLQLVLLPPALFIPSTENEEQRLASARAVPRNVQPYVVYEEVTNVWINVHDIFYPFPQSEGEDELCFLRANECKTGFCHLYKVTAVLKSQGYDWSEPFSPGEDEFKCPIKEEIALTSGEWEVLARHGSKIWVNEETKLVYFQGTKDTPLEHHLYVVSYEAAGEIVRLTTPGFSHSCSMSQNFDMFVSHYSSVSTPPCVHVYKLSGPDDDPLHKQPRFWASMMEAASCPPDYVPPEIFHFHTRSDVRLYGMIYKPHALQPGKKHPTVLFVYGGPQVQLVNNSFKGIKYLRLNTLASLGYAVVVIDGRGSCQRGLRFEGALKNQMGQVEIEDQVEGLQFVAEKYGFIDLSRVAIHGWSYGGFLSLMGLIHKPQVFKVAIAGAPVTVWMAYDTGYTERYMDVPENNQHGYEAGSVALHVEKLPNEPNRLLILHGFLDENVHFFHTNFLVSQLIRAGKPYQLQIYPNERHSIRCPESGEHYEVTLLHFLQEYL

Row | Structure (SMILES) | IC50 ([1]; Table 2, Z-Gly-Pro-AMC) | IC50 ([1]; Table 3) | inhibition at 1 µM ([1]; read-out: rhFAPα (% exo inh @ 1 μM)) | IC50 [2] | IC50 [3] | inhibition at 1 µM [4] | IC50 [5] | IC50 [6] | IC50 ([7]; Table 2, Z-Gly-Pro-AMC) | IC50 ([7]; Table 3) | inhibition at 1 µM ([7]; read-out: rmFAPα (% exo inh @ 1 μM)) | IC50 [8]
1 | Cn1cc(C(=O)NCC(=O)N2CC(F)(F)C[C@H]2C#N)ccc1=O [Compound 16, (S)—N-(2-(2-cyano-4,4-difluoropyrrolidin-1-yl)-2-oxoethyl)-1-methyl-6-oxo-1,6-dihydropyridine-3-carboxamide] | < 1000 nM | < 1000 nM | > 50% | > 10000 nM | > 10000 nM | – | – | – | – | – | – | –
2 | N#C[C@@H]1CC(F)(F)CN1C(=O)CNC(=O)c1ccc2ncccc2c1 [Example 4, (S)—N-(2-(2-cyano-4,4-difluoropyrrolidin-1-yl)-2-oxoethyl)quinoline-6-carboxamide] | < 1000 nM | – | – | 1000 to 10000 nM | > 10000 nM | > 50% | > 10000 nM | > 10000 nM | < 1000 nM | < 1000 nM | – | –
3 | N#C[C@@H]1CC(F)(F)CN1C(=O)CNC(=O)c1ncnc2c1CCC2 [Example 5, (S)—N-(2-(2-cyano-4,4-difluoropyrrolidin-1-yl)-2-oxoethyl)-6,7-dihydro-5H-cyclopenta[d]pyrimidine-4-carboxamide] | – | – | – | – | – | < 25% | – | – | – | – | – | –
4 | N#C[C@@H]1CC(F)(F)CN1C(=O)CNC(=O)c1ccc(=O)[nH]c1 [Example 6, (S)—N-(2-(2-cyano-4,4-difluoropyrrolidin-1-yl)-2-oxoethyl)-6-oxo-1,6-dihydropyridine-3-carboxamide] | < 1000 nM | – | – | > 10000 nM | – | – | > 10000 nM | – | < 1000 nM | < 1000 nM | > 50% | –
5 | N#C[C@@H]1CC(F)(F)CN1C(=O)CNC(=O)C1Cc2ccccc2C1 [Example 7, (S)—N-(2-(2-cyano-4,4-difluoropyrrolidin-1-yl)-2-oxoethyl)-2,3-dihydro-1H-indene-2-carboxamide] | – | – | – | – | – | < 25% | – | – | – | – | – | –
6 | N#C[C@@H]1CC(F)(F)CN1C(=O)CNC(=O)N1Cc2ccccc2C1 [Example 8, (S)—N-(2-(2-cyano-4,4-difluoropyrrolidin-1-yl)-2-oxoethyl) isoindoline-2-carboxamide] | – | – | – | – | – | < 25% | – | – | – | – | – | –
7 | Cn1cc(C(=O)NCC(=O)N2CC(F)(F)C[C@H]2C#N)c2ccccc2c1=O [Example 9, (S)—N-(2-(2-cyano-4,4-difluoropyrrolidin-1-yl)-2-oxoethyl)-2-methyl-1-oxo-1,2-dihydroisoquinoline-4-carboxamide] | < 1000 nM | < 1000 nM | – | > 10000 nM | < 1000 nM | > 50% | – | – | < 1000 nM | < 1000 nM | – | > 10000 nM
